Tests used:
[1] = target: T1, MMP-1 (fibroblast collagenase) (Homo sapiens, UniProt P03956); experiment: MMP activity measurement test, MMP-1 fluorimetric drug discovery kit; assay type: biochemical; details: reaction with enzyme 37° C. 60 minutes, substrate 60 minutes; FIG. 5
T1 construct: purchased Enzo Life Sciences, Inc. BML-AK405-0001
T1 sequence (P03956 100-269 limits assumed): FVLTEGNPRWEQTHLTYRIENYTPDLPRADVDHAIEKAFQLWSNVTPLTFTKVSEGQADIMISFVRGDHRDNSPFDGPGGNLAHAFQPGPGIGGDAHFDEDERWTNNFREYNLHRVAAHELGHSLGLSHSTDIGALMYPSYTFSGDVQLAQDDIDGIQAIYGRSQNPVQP
Description: (§1) Evaluation material solutions were prepared by individually adding each evaluation material at the respective concentrations shown in FIGS. 4 and 5 to a solvent in which 5% DMSO was added to the buffer included in each kit below. The evaluation materials used are EPC-K (L-ascorbic acid dl-α-tocopherol phosphoric acid diester potassium salt), VC (ascorbic acid), VEA (tocopherol acetate), and VEN (tocopherol nicotinate).
(§2) MMP-8 (neutrophil collagenase) activity was evaluated using an MMP-8 fluorimetric drug discovery kit (Enzo Life Sciences, Inc., BML-AK415-0001), and MMP-1 (fibroblast collagenase) activity was evaluated using an MMP-1 fluorimetric drug discovery kit (Enzo Life Sciences, Inc., BML-AK405-0001), in the following manner. […]
(§3) The fluorescent substrate included in each kit was diluted 10-fold using the buffer, and added in an amount of 10 μl to each solution after the reaction for 60 minutes. After the addition, a reaction was allowed to proceed at 37° C. for 20 minutes for MMP-8 or at 37° C. for 60 minutes for MMP-1, and the fluorescence intensity (excitation light: 328 nm; emission light: 420 nm) was measured. […] The concentration of each evaluation material in FIGS. 4 and 5 is the concentration at the time of preparing the evaluation material, and the final concentration (concentration at the time of measuring fluorescence intensity) is 1/5 of this concentration value.

[2] = target: T2, MMP-8 (neutrophil collagenase) (Homo sapiens, UniProt P22894); experiment: MMP activity measurement test, MMP-8 fluorimetric drug discovery kit; assay type: biochemical; details: reaction with enzyme 37° C. 60 minutes, substrate 20 minutes; FIG. 4
T2 construct: purchased Enzo Life Sciences, Inc. BML-AK415-0001
T2 sequence (P22894 100-262 limits assumed): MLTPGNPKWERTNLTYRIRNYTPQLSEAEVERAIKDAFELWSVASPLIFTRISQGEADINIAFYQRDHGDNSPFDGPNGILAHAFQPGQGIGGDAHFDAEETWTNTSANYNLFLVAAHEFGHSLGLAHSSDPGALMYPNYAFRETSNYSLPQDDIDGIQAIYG
Description: as §1, §2, §3

[3] = system: oral cavity-derived epithelial cell line (Ca9-22 cells); experiment: Cytotoxicity evaluation test (WST-1); assay type: cell-based; details: surfactant final concentration 1%, 10 minutes at room temperature, FIGS. 6 and 7
Description: An oral cavity-derived epithelial cell line (Ca9-22 cells) was cultured in a 96-well plate to confluency.
Evaluation solutions were prepared using PBS containing 0.5% DMSO as a solvent so that the final concentration of each surfactant was 1%. The surfactants used were polyoxyethylene (9) lauryl ether, polyoxyethylene (20) cetyl ether, polyoxyethylene (20) stearyl ether, polyoxyethylene (10) octylphenyl ether, polyoxyethylene glycol monolaurate, sorbeth-60 tetraoleate, diethyl sebacate, and polyoxyethylene (10) hydrogenated castor oil.
100 μl of each prepared evaluation solution was individually added to the cultured Ca9-22 cells and allowed to stand for 10 minutes at room temperature. After 10 minutes, washing was performed three times with 200 μl of PBS, a WST-1 reagent (Takara Bio Inc.) was added, and a reaction was allowed to proceed for 30 minutes. After the reaction, the absorbance at 450 nm and 600 nm was measured, and the absorbance at 600 nm was subtracted from the absorbance at 450 nm. The cell viability was calculated from the value calculated by the subtraction, based on the value obtained when only the solvent was added for the treatment taken as 100%. FIGS. 6 and 7 show the results.

Compound | inhibition of MMP-1 activity [1] | inhibition of MMP-8 activity [2] | cytotoxicity in oral cavity-derived cells (cell viability) [3]
Cc1c(C)c2c(c(C)c1OP(=O)([O-])OC1=C(O)C(C(O)CO)OC1=O)CCC(C)(CCCC(C)CCCC(C)CCCC(C)C)O2.[K+] (racemic) [EPC-K, L-ascorbic acid dl-α-tocopherol phosphoric acid diester potassium salt] | inhibited MMP activity (MMP-8 and MMP-1) in a concentration-dependent manner | inhibited MMP activity (MMP-8 and MMP-1) in a concentration-dependent manner | –
polyoxyethylene (10) hydrogenated castor oil | – | – | cytotoxicity was not caused
polyoxyethylene (20) stearyl ether | – | – | cytotoxicity was caused
polyoxyethylene (9) lauryl ether | – | – | cytotoxicity was caused
polyoxyethylene (10) octylphenyl ether | – | – | cytotoxicity was caused
sorbeth-60 tetraoleate | – | – | cytotoxicity was not caused
CCOC(=O)CCCCCCCCC(=O)OCC [diethyl sebacate] | – | – | cytotoxicity was not caused
polyoxyethylene glycol monolaurate | – | – | cytotoxicity was caused
polyoxyethylene (20) cetyl ether | – | – | cytotoxicity was caused

From patent publication US20250205194A1, “COMPOSITION CONTAINING L-ASCORBIC ACID DL-a-TOCOPHEROL PHOSPHORIC ACID DIESTER ALKALI METAL SALT” (SUNSTAR INC., priority 2022, published 2025)
